Assay results from patent US20260165954A1, “BIO[…]-AND-RESERVOIR SYSTEM FOR THE PULSED DELIVERY OF BIOACTIVE AGENTS” (University of Mississippi, priority 2022, published 2026).

Experiments:
[1] = Pharmacokinetics of DOI from subcutaneously implanted multilayered CAPP films; type: in vivo; conditions: subcutaneous multilayered CAPP films, CD-1 mice
Source text: (§1) FIGS. 12A-12G show in vivo delivery of 5HT2A agonist DOI from single- and multi-layer CAPP films. (FIG. 12A) In vitro cumulative release of DOI from 0.1 mm CAPP films. (FIG. 12B) Scheme of subcutaneous implantation of 0.1 mm DOI-loaded CAPP films and experimental time course. Pharmacokinetics of DOI released from subcutaneously implanted, single-layered CAPP films in (FIG. 12C) plasma (n=4) and (FIG. 12D) brain (n=4). (FIG. 12E) Scheme of subcutaneous implantation of multilayered CAPP films and experimental time course. Pharmacokinetics of DOI released from multilayered CAPP films in (FIG. 12F) plasma (n=4), and (FIG. 12G) brain (n=4).
(§2) To confirm that 5HT2A agonists could be effectively delivered in vivo from an implantable drug delivery system, the encapsulation and release of DOI (2,5-dimethoxy-4-iodoamphetamine) from CAPP films was investigated. DOI release was first observed from single-layered CAPP films. […] The DOI-loaded, single-layered films were next implanted subcutaneously in CD-1 mice (50:50 M:F mice) and monitored the pharmacokinetics and biodistribution of DOI after implantation (FIGS. 12B-12D). […] After this initial optimization, multilayered CAPP films with DOI encapsulated in the ‘release’ layers were generated and implanted them subcutaneously in CD-1 mice (50:50 M:F mice; FIG. 12E). […]

[2] = In vitro release of DOI from single-layered CAPP films; type: physicochemical; conditions: 0.1 mm single-layered CAPP films; FIG. 12A
Source text: as §1, §2

[3] = Pharmacokinetics of DOI from subcutaneously implanted single-layered CAPP films; type: in vivo; conditions: CD-1 mice
Source text: as §1, §2

COc1cc(CC(C)N)c(OC)cc1I (centres unmarked) [DOI, 2,5-dimethoxy-4-iodoamphetamine]
absorption and tissue accumulation from the first 'release' layer [1]: rapid absorption of DOI and accumulation in the brain (as well as kidneys and liver) | time of second pulse in plasma and organs after the first pulse ([1]; FIGS. 12F-12G): ~20 h | in vitro release kinetics [2]: closely mimicked that of rhodamine and FITC | time of peak plasma concentration post-implantation ([3]; subcutaneous 0.1 mm DOI-loaded single-layered CAPP films, plasma, FIG. 12C): 2 h | brain distribution and clearance ([3]; subcutaneous single-layered CAPP films, brain, FIG. 12D): rapidly accumulated in the brain after which it was cleared with similar kinetics to the blood plasma
